Measured values reported in patent publication US10081609B2, “Compounds for inducing proliferation and differentiation of cells, and methods of use thereof” (The Broad Institute, Inc., priority 2013, dated 2018).

Key:
[1] = test system: human primary hepatocytes; assay: High-throughput liver platform, primary screening: secreted albumin by competitive ELISA; format: cell-based
Description: In order to evaluate the phenotype of treated cells, a secondary readout was included to quantify hepatocyte functions via competitive ELISA. This biochemical assay measured the level of secreted albumin as a marker for protein synthesis functions of the cultured hepatocytes (FIG. 1A bottom).
FIG. 1B top summarizes the workflow of the screen. Primary screening was done on human primary hepatocytes, preconditioned for seven days by non-parenchymal cells in the screening platform. Upon stabilization in vitro, cultures were treated with the chemical library for 48 hours. All compounds were tested in duplicates, at a single concentration of 15 μM. This single concentration was selected via a pilot screen of ˜2,000 small molecules. All 12,480 small molecules were initially tested on a single donor of cryopreserved hepatocytes (donor a) in order to eliminate noise from donor-to-donor variability. Following compound treatment, media supernatants were collected for functional analyses via ELISA and cultures were fixed in 4% paraformaldehyde for proliferation analyses via imaging.

[2] = test system: iHeps; assay: Differentiation of human iPS-derived hepatocytes (iHeps): morphology and immunofluorescent staining; format: cell-based
Procedure: (§1) The ability of compounds of the invention to affect the differentiation and maturation of iHeps was tested. Undifferentiated iPS cells were cultured on Matrigel, supported by primary mouse embryonic fibroblasts. Once confluent, iPS cells were transitioned to differentiation media, with sequential addition of growth factors (Activin A, BMP-4, bFGF, HGF, and OSM) to guide differentiation, first into endoderm, then into hepatic progenitor cells and finally into iHeps. Compound treatment started on day 21 post initiation of differentiation and acted over a period of 9 days. FH1 and FPH2 were used to treat iHeps. FH1 doubled albumin secretion during primary screening (FIG. 4A left) in a dose-responsive manner (FIG. 4A right).
To examine the effects of FH1 and FPH2 at the protein level, AFP, albumin and CYP3A4 levels weew visualized via immunofluorescent staining. […] This is in agreement with primary screening results as well as earlier morphological findings. Untreated cultures had islands that double stain for albumin and the fetal marker AFP, with very little presence of the mature marker CYP3A4.

[3] = test system: iHeps; assay: Gene expression profiles of treated iHeps (Luminex); format: cell-based, human
Procedure: Cells were lysed using RLT buffer (Qiagen) or Trizol (Invitrogen) and purified using the Mini-RNeasy kit (Qiagen). Gene expression was determined using Luminex analysis, as previously described. Briefly, total RNA was immobilized on a Qiagen turbo capture 384-well plate, and reverse-transcribed using oligodT priming A biotinylated FlexMap tag sequence unique to each gene of interest and a phosphorylated downstream probe were then added to resulting cDNAs to generate biotinylated FlexMap-tagged amplicons. Universal PCR was then performed for 35 cycles using a biotinylated T7 forward primer and T3 reverse primer in buffer with dNTPs and Taq polymerase. FlexMap microsphere beads conjugated with antitag oligonucleotides were then added and allowed to hybridize. Amplicons were captured by streptavidin-phyoerythrin, and 100 events per bead were analyzed for internal bead color and phyoerythrin reporter fluorescence on a Luminex FlexMap 3D analyzer. Data for replicate loadings, expressed in mean fluorescent intensity of at least 100 beads per sample, were scaled to the human transferrin gene and row-normalized for heat map representation using GeneE open software (Broad Institute).
as §1
Euclidian clustering analyses groups untreated cells with fetal hepatocytes and treated cells with mature hepatocytes (FIG. 4C left). Of particular interest are ABC transporters, CYP3A4 and GSTP1 expression levels. ABC transporters are known to mature after birth. ABCB11, also known as bile-salt export pump (BSEP), increased ˜3 fold and ˜4 fold in expression levels with FPH2 and FH1 treatment, respectively, compared to untreated iHeps. In contrast, GSTP1 expression, whose levels decrease with maturity, remained low upon FPH2 and FH1 treatment compared to untreated iHeps (FIG. 4C right).

[4] = biological target: ALK (Homo sapiens, UniProt Q9UM73); assay: Kinome analysis (panel of kinases); format: biochemical
Sequence of ALK (Q9UM73 19-1620, species assumed): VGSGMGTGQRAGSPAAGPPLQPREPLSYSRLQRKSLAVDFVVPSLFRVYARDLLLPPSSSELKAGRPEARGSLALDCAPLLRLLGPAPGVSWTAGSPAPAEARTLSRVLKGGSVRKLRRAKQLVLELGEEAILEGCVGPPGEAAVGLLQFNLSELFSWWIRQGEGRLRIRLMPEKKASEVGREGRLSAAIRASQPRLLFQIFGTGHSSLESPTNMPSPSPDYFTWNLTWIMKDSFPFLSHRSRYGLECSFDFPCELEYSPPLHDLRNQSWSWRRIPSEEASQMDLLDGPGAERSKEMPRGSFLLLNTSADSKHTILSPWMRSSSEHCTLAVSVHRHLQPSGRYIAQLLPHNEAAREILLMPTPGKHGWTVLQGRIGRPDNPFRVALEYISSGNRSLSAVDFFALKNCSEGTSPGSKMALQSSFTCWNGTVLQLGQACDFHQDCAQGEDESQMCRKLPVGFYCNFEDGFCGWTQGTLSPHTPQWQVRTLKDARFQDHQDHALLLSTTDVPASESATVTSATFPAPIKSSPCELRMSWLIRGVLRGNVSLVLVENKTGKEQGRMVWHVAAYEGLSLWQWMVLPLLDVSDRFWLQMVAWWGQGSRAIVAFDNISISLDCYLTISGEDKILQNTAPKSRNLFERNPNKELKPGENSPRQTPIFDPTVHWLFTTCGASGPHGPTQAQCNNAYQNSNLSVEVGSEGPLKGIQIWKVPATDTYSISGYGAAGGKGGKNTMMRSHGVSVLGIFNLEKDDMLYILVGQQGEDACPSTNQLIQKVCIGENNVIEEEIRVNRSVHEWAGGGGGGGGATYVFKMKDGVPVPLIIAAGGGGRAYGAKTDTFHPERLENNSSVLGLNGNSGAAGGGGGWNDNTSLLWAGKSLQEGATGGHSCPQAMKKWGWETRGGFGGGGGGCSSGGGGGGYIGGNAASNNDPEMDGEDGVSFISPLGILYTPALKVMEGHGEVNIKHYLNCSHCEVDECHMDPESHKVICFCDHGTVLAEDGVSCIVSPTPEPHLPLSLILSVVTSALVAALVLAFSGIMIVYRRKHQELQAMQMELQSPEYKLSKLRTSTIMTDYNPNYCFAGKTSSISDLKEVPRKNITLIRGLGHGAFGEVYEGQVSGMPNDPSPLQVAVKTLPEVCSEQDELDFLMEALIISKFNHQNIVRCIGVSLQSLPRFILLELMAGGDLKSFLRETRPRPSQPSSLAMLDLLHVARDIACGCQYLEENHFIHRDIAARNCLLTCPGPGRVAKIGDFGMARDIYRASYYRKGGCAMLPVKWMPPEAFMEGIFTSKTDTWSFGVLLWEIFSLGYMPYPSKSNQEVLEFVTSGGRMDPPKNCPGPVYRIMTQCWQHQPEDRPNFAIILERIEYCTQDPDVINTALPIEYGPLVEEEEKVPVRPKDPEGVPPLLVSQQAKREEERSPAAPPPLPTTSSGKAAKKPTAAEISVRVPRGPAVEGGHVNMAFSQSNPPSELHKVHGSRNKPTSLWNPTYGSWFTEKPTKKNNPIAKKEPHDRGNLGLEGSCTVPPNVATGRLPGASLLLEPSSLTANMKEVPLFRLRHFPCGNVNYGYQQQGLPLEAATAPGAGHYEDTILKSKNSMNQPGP
Procedure: (§2) Selected compounds of the invention (FPH1 and FPH2; both at 1 μM concentration) were screened against a panel of kinases (FIG. 17).

[5] = biological target: CDK5 (Homo sapiens, UniProt Q00535); assay: Kinome analysis (panel of kinases); format: biochemical
Sequence of CDK5 (Q00535 whole entry, species assumed): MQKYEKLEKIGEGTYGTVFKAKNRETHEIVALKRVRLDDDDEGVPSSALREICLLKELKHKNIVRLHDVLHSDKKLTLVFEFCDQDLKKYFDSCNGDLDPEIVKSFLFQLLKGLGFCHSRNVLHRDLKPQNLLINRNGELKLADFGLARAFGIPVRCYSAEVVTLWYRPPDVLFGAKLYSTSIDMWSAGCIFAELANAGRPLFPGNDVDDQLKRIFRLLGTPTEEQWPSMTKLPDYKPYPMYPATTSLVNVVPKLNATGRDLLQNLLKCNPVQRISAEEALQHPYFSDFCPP
Sequence of CDK5 (Q15078 whole entry partner, species assumed): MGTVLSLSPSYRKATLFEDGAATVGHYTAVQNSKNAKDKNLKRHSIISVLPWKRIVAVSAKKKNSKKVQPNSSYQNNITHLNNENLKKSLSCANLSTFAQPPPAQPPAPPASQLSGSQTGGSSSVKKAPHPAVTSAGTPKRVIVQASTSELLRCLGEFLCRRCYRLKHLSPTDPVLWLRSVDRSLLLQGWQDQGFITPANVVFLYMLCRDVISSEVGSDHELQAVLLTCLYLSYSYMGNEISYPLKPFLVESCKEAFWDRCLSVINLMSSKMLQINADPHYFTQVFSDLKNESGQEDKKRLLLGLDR
Procedure: as §2

[6] = biological target: CK1 γ2 (Homo sapiens, UniProt P78368); assay: Kinome analysis (panel of kinases); format: biochemical
Procedure: as §2

[7] = biological target: CLK1 (Homo sapiens, UniProt P49759); assay: Kinome analysis (panel of kinases); format: biochemical
Procedure: as §2

[8] = biological target: CLK4 (Homo sapiens, UniProt Q9HAZ1); assay: Kinome analysis (panel of kinases); format: biochemical
Procedure: as §2

[9] = biological target: CaMK1 δ (Homo sapiens, UniProt Q8IU85); assay: Kinome analysis (panel of kinases); format: biochemical
Procedure: as §2

[10] = biological target: DAPK1 (Homo sapiens, UniProt P53355); assay: Kinome analysis (panel of kinases); format: biochemical
Sequence of DAPK1 (P53355 whole entry, species assumed): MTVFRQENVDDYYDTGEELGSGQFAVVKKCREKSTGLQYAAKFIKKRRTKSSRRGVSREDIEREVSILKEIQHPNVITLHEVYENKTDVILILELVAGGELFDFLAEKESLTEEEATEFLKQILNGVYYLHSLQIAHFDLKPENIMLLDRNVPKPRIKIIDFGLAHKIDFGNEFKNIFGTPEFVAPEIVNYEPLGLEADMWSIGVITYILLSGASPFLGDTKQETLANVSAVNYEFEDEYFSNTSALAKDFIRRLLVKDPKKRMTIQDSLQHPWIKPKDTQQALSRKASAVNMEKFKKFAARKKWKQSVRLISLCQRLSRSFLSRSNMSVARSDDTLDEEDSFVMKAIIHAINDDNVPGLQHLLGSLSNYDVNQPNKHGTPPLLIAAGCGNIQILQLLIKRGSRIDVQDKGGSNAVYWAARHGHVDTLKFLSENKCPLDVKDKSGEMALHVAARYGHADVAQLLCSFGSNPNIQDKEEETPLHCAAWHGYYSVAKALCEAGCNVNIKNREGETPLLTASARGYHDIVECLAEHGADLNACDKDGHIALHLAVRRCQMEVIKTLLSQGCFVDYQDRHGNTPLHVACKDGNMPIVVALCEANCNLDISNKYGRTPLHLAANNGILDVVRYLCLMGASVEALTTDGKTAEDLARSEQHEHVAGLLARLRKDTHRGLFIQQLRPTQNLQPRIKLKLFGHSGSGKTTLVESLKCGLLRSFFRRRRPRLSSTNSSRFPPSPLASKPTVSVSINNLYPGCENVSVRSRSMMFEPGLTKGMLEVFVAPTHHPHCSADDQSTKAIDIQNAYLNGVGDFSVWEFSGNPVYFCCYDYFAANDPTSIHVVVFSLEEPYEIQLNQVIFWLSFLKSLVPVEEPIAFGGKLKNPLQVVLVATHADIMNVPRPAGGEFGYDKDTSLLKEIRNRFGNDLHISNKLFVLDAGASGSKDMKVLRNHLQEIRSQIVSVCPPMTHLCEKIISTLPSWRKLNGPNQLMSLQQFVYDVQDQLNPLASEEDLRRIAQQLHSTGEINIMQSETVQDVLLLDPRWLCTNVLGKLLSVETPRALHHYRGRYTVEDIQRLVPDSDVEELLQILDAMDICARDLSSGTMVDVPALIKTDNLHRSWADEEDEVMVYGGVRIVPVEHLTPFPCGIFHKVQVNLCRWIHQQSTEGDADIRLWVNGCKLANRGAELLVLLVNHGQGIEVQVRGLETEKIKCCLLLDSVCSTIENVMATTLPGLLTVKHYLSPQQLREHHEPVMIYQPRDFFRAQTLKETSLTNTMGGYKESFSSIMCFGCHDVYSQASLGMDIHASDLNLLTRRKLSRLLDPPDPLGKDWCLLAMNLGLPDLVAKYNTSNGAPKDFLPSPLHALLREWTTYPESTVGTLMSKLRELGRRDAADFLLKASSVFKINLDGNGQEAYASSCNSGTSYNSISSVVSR
Procedure: as §2

[11] = biological target: EphB4 (Homo sapiens, UniProt P54760); assay: Kinome analysis (panel of kinases); format: biochemical
Procedure: as §2

[12] = biological target: FAK (Homo sapiens, UniProt Q05397); assay: Kinome analysis (panel of kinases); format: biochemical
Procedure: as §2

[13] = biological target: FMS (Homo sapiens, UniProt P07333); assay: Kinome analysis (panel of kinases); format: biochemical
Sequence of FMS (P07333 20-972, species assumed): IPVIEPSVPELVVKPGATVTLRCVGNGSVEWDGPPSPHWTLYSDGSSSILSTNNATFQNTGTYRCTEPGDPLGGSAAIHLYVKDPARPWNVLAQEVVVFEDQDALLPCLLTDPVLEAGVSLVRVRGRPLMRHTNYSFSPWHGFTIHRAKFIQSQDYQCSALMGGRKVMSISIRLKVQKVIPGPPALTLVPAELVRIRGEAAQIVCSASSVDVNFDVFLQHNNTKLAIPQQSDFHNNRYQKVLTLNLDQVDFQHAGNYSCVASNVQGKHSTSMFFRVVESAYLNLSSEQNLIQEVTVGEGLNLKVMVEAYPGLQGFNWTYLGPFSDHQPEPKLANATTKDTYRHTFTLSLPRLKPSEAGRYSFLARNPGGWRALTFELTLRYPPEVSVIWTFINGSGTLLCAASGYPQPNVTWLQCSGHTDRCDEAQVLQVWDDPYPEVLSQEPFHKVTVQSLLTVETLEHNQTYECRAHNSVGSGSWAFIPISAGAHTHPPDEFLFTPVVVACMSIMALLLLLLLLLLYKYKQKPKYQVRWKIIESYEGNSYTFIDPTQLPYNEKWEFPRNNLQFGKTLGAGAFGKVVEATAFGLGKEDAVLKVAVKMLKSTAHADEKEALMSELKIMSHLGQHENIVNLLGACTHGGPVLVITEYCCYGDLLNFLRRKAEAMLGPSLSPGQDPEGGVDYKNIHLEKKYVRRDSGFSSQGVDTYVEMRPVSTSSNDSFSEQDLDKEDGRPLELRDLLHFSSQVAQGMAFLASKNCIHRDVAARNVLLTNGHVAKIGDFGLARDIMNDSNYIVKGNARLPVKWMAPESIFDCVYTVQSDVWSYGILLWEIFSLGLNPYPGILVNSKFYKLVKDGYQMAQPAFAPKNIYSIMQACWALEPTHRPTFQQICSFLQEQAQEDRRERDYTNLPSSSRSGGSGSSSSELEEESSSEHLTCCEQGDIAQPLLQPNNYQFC
Procedure: as §2

[14] = biological target: NEK2 (Homo sapiens, UniProt P51955); assay: Kinome analysis (panel of kinases); format: biochemical
Sequence of NEK2 (P51955 whole entry, species assumed): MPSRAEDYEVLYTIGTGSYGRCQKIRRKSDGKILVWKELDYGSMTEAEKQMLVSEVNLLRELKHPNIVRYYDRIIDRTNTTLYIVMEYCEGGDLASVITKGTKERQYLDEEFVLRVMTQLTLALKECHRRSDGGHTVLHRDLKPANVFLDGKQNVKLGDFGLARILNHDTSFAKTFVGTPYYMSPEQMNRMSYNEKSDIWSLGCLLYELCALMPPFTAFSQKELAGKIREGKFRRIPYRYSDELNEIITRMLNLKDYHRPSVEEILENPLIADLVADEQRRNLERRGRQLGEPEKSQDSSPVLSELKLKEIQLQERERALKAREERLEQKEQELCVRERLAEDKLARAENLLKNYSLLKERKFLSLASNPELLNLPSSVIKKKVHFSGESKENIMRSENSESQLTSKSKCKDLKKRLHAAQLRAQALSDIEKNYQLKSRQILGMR
Procedure: as §2

[15] = biological target: NEK9 (Homo sapiens, UniProt Q8TD19); assay: Kinome analysis (panel of kinases); format: biochemical
Procedure: as §2

[16] = biological target: PDGFRβ (Homo sapiens, UniProt P09619); assay: Kinome analysis (panel of kinases); format: biochemical
Procedure: as §2

[17] = biological target: PI3KC2 α (Homo sapiens, UniProt O00443); assay: Kinome analysis (panel of kinases); format: biochemical
Procedure: as §2

[18] = test system: PI3KCγ; assay: Kinome analysis (panel of kinases); format: biochemical; conditions: 1 μM
Procedure: as §2

[19] = biological target: RSK2 (Homo sapiens, UniProt P51812); assay: Kinome analysis (panel of kinases); format: biochemical
Procedure: as §2

[20] = biological target: RSK3 (Homo sapiens, UniProt Q15349); assay: Kinome analysis (panel of kinases); format: biochemical
Procedure: as §2

[21] = biological target: RSK4 (Homo sapiens, UniProt Q9UK32); assay: Kinome analysis (panel of kinases); format: biochemical
Procedure: as §2

[22] = biological target: Ron (Homo sapiens, UniProt Q04912); assay: Kinome analysis (panel of kinases); format: biochemical
Procedure: as §2

[23] = biological target: eEF-2K (Homo sapiens, UniProt O00418); assay: Kinome analysis (panel of kinases); format: biochemical
Procedure: as §2

Cc1ccc(Cl)cc1N(CC(=O)Nc1c(F)cccc1F)S(C)(=O)=O [FPH2, 2-(N-(5-chloro-2-methylphenyl)methylsulfonamido)-N-(2,6-difluorophenyl)acetamide]
albumin secretion during primary screening [1]: similar, but weaker effects | albumin staining (immunofluorescent) ([2]; treated iHeps): dramatic increases | hepatocyte phenotype of treated iHeps ([2]; treatment from day 21, 9 days): more mature hepatocyte phenotypes | ABCB11 (BSEP) expression level increase compared to untreated iHeps [3]: ~3 fold | GSTP1 expression compared to untreated iHeps [3]: remained low | inhibition at 1 µM [4]: 23% | remaining activity at 1 µM [4]: 77% | inhibition at 1 µM [5]: 6.7 to 18.4% | inhibition at 1 µM [6]: 6.7 to 18.4% | inhibition at 1 µM [7]: 6.7 to 18.4% | inhibition at 1 µM [8]: 6.7 to 18.4% | inhibition at 1 µM [9]: 6.7 to 18.4% | inhibition at 1 µM [10]: 6.7 to 18.4% | inhibition at 1 µM [11]: 18.4 to 30% | inhibition at 1 µM [12]: 6.7 to 18.4% | inhibition at 1 µM [13]: 28% | remaining activity at 1 µM [13]: 72% | inhibition at 1 µM [14]: 6.7 to 18.4% | inhibition at 1 µM [15]: 6.7 to 18.4% | inhibition at 1 µM [16]: 6.7 to 18.4% | inhibition at 1 µM [17]: 6.7 to 18.4% | PI3KCγ inhibition [18]: 6.7-18.4% | inhibition at 1 µM [19]: 6.7 to 18.4% | inhibition at 1 µM [20]: 6.7 to 18.4% | inhibition at 1 µM [21]: 6.7 to 18.4% | inhibition at 1 µM [22]: 6.7 to 18.4% | inhibition at 1 µM [23]: 6.7 to 18.4%
